Source: paper PMC6321621, “Design of a Novel and Selective IRAK4 Inhibitor Using Topological Water Network Analysis and Molecular Modeling Approaches” (Molecules, 2018)

Tests used:
Type in all cases: biochemical
IRAK4 (h) = molecular target: T1, IRAK4 (h) (Homo sapiens, UniProt Q9NWZ3); assay: Enzymatic assay for IRAK4 (radiometric, Eurofins); conditions: for IC50: in vitro enzymatic assay, duplicate, average, read-out: IC50 against IRAK4
T1 construct: purchased Eurofins Scientific Inc. Korea (contract assay service)
T1 sequence (Q9NWZ3 1-460): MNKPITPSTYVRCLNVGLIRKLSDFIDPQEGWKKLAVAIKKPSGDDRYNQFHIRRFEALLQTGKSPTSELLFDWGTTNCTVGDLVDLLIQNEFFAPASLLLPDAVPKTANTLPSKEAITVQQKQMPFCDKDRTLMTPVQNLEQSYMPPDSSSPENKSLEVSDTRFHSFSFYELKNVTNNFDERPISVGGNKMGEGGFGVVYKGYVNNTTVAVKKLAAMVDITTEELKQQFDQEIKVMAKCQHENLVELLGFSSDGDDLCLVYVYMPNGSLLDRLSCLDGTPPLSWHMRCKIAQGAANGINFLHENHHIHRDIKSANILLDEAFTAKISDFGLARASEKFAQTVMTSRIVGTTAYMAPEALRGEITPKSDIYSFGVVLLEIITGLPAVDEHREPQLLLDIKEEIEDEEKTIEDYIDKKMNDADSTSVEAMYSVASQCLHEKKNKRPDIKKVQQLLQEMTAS
Procedure: (§1) Enzymatic assays for IRAK4, ASK1, ITK, and LYN were performed by Eurofins Scientific Inc. Korea (Brussels, Belgium). All assays were performed in duplicate, and the average IC50 value was reported.
(§2) IRAK4 (h) was incubated with 8 mM MOPS pH 7.0, 0.2 mM EDTA, 0.33 mg/mL myelin basic protein, 10 mM Mg acetate and [γ-^33P]-ATP (specific activity approx. 500 cpm/pmol, concentration as required). The reaction was initiated by the addition of a MgATP mix. After incubation for 40 min at room temperature, the reaction was stopped by the addition of 3% phosphoric acid solution. A total of 10 μL of the reaction was then spotted onto a P30 filtermat and washed three times for 5 min in 75 mM phosphoric acid, and once in methanol prior to drying and scintillation counting.

ASK1 (h) = molecular target: T2, ASK1 (h) (Homo sapiens, UniProt Q99683); assay: Enzymatic assay for ASK1 (radiometric, Eurofins); conditions: in vitro enzymatic assay, duplicate, average; read-out: IC50 against ASK1
T2 construct: purchased Eurofins Scientific Inc. Korea (contract assay service)
T2 sequence (Q99683 1-1374): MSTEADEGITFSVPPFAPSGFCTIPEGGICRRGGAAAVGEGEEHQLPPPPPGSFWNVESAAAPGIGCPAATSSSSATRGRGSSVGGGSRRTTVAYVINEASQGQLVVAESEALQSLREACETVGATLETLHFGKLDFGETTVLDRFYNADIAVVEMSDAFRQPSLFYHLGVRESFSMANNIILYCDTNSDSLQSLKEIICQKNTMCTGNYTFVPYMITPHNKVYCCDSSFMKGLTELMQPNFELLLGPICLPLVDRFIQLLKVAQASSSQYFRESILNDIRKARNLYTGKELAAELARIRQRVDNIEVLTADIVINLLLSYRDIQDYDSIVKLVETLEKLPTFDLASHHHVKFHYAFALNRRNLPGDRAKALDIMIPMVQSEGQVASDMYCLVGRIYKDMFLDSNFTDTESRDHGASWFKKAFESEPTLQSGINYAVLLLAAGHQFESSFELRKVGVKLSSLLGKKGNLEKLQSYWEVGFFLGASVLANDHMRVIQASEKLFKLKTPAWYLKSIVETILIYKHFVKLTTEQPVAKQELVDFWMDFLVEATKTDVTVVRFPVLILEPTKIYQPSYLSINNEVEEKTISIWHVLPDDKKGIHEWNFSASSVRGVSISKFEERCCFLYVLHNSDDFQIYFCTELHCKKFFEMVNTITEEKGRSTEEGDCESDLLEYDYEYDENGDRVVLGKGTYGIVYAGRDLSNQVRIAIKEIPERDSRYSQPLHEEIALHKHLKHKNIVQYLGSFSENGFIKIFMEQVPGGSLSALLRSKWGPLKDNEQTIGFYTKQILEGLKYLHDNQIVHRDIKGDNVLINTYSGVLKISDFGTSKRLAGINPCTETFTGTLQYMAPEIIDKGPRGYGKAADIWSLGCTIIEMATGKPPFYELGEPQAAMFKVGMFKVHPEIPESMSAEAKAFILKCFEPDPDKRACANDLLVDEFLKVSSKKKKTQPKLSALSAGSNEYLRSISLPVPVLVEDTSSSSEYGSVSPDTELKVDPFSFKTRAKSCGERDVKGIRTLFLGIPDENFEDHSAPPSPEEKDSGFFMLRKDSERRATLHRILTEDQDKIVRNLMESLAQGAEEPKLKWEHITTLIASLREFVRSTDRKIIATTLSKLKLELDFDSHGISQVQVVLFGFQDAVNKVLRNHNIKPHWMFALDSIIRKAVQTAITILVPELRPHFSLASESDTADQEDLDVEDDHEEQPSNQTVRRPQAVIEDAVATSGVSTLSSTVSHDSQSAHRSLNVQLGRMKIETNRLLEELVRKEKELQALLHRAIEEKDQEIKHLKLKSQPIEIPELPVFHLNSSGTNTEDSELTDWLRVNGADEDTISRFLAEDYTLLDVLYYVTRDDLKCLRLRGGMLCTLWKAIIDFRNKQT
Procedure: as §1
as §2, with “ASK1 (h)” for “IRAK4 (h)”, “of the” for “of a”

ITK (h) = molecular target: T3, ITK (h) (Homo sapiens, UniProt Q08881); assay: Enzymatic assay for ITK (radiometric, Eurofins); conditions: in vitro enzymatic assay, duplicate, average; read-out: IC50 against ITK
T3 construct: purchased Eurofins Scientific Inc. Korea (contract assay service)
T3 sequence (Q08881 1-620): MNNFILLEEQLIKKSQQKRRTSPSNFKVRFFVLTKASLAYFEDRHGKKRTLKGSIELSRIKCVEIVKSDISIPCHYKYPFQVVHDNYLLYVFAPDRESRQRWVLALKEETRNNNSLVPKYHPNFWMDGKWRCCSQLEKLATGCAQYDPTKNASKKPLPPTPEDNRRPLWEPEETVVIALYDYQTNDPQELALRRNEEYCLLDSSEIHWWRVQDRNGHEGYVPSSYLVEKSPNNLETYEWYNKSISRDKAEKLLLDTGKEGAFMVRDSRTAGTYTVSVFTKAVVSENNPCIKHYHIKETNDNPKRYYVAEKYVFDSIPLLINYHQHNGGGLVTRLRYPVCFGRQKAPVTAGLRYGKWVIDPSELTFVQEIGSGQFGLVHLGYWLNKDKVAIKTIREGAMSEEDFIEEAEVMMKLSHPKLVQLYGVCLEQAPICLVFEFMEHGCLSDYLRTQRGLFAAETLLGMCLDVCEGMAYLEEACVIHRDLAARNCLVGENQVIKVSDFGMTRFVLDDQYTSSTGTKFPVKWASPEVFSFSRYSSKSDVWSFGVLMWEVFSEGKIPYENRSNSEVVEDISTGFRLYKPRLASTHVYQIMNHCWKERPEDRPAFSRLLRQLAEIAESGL
Procedure: as §2, with “Enzymatic assays for IRAK4, ASK1, ITK, and LYN were performed by Eurofins Scientific Inc. Korea (Brussels, Belgium). All assays were performed in duplicate, and the average IC50 value was reported. ITK (h)” for “IRAK4 (h)”, “Mg acetate,” for “Mg acetate”, “of the” for “of a”

LYN (h) = molecular target: T4, LYN (h) (Homo sapiens, UniProt P07948); assay: Enzymatic assay for LYN (radiometric, Eurofins); conditions: in vitro enzymatic assay, duplicate, average; read-out: IC50 against LYN
T4 construct: purchased Eurofins Scientific Inc. Korea (contract assay service)
T4 sequence (P07948 whole entry): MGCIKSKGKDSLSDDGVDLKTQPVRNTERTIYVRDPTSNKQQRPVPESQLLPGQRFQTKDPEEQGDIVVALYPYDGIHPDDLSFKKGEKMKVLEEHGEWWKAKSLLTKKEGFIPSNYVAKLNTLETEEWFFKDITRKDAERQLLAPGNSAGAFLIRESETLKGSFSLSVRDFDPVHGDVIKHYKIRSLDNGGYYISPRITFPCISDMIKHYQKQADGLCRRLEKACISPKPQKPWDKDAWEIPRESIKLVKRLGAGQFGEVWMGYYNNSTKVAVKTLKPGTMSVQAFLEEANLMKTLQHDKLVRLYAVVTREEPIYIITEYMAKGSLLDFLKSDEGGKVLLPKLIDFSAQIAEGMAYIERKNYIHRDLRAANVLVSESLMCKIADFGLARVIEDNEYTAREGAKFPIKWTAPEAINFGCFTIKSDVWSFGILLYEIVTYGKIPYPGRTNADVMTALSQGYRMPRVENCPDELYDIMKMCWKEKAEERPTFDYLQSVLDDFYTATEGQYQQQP
Procedure: Enzymatic assays for IRAK4, ASK1, ITK, and LYN were performed by Eurofins Scientific Inc. Korea (Brussels, Belgium). All assays were performed in duplicate, and the average IC50 value was reported. LYN (h) was incubated with 50 mM Tris pH 7.5, 0.1 mM EGTA, 0.1 mM Na3VO4, 0.1% […], 0.1 mg/mL poly(Glu, Tyr) 4:1, 10 mM Mg acetate, and [γ-^33P]-ATP (specific activity approx. 500 cpm/pmol, concentration as required). The reaction was initiated by the addition of the MgATP mix. After incubation for 40 min at room temperature, the reaction was stopped by the addition of 3% phosphoric acid solution. A total of 10 μL of the reaction was then spotted onto a Filtermat A and washed three times for 5 min in 75 mM phosphoric acid, and once in methanol prior to drying and scintillation counting.

IC50 (IRAK4 (h)) [µM] | IC50 (ASK1 (h)) [µM] | IC50 (ITK (h)) [µM] | IC50 (LYN (h)) [µM] | inhibition of IRAK4 (IRAK4 (h); at 10 μM) [%] | Compound
0.187 | 0.053 | 1.67 | 2.39 |  | CC(C)(C)c1ccc(C(=O)Nc2cn3cc(-n4ccnc4)ccc3n2)cc1 [Compound 1]
6.65 |  |  |  |  | COCc1nc2ccc(NC(=O)c3ccc(Br)o3)cc2[nH]1 [Compound 2]
0.158 |  |  |  | 97 | 4-(5-Benzylamino-imidazo[4,5-b]pyridine-1-yl)-benzonitrile [Compound 3]
